Patent US20200360471A1, “METHODS OF TREATING AND PREVENTING VIRAL INFECTIONS” (priority 2017, published 2020)
Peptide text beside a SMILES is read from it. * marks the point of attachment. Decanoyl = CCCCCCCCCC(=O)*; CH2Cl = ClC*

Key:
HPVS PsV = conditions: read-out: IC50, inhibition of uptake of HPVS PsV; PsV 1:6000 dilution, 293TT cells
Protocol: Pseudovirus (PsV) of HPVS was prepared using method described by Buck et al, (Journal of Virology, January 2004; 751-757) and used as a model HPV in this study. The PsV stocks were prepared by co-transfecting human 293TT cells with HPVS viral plasmid p5Shell containing codon-modified papillomavirus capsid genes for L1 and L2 proteins, and pcLucF reporter plasmid containing the luciferase gene for detecting viral infection. The cell lysates containing the capsidized virus was used as the PsV stock. Optimal PsV dilution factor was determined based on the luciferase activity in 293TT cells infected with serially diluted HPVS PsV.
Data were collected on a Molecular Devices Flexstation 3 Microplate Reader using Softmax Pro v5.4.4. Data analysis was performed on Prism software using four parameter logistic model. […] Furin Inhibitor I was used as a positive control for HPVS PsV inhibition since it blocks the viral entry into host cells.
Two runs were performed for each dilution level.

TLR7 [1] = assay: Ongoing inflammation in PBMC cultures: imiquimod 3 hrs followed by omiganan 21 hrs; type: cell-based, human; conditions: imiquimod alone, PBMC
Protocol: (§1) Primary cell cultures were prepared in RPMI including 5% autologous plasma. Isolated PBMC cells were cultured in 96-well plates at a density of 0.5×10^6cells/well at 37° C., under humidified 5% CO2.
(§2) IL-1β, TNFα, IL-6 and IL-8 were measured simultaneously with a fixed electrochemoluminescence platform based on the sandwich ELISA principle of capture and detection antibodies, produced by MESO SCALE DISCOVERY (MSD, MESO SCALE QUICKPLEX SQ120). The applied assay was the V-PLEX PLUS pro-inflammatory cytokine panel II, including IL-1β, TNFα, IL-6 and IL-8. This assay includes manufacturer-provided control samples with indicated nominal values for comparison. These lyophilized controls, i.e. freeze-dried controls for IL-1β, TNFα, IL-6, IL-8, were prepared freshly at the time of use. QC samples were prepared from the calibrator at 3 different concentrations along the standard curve as multiple aliquots from a single batch and maintained at −20° C. Low, medium and high concentration controls were included in every multiplex assay run to control intra- and inter-assay variation. V-PLEX panels are specific for the detection of human chemokines and cytokines, and combinations have been validated by the manufacturer, to ensure no cross-reactivity.
Briefly, PBMC primary cultures were prepared from 4 donors. […] The readouts for the following cytokine and chemokine release were measured: IL-1β, IL-2, IL-4, IL-6, IL-8 HA, IL-8, IL-12p70, IL-13, IFN-γ, and TNF-α were measured. The cultures were prepared in duplicate.

TLR3/RIG-1/Mda5 = assay: polyI:C-induced cytokine responses in PBMC cultures with peptide pre-treatment; type: cell-based, human; conditions: 5 or 25 μg/mL peptide, 30 min pre-treatment, 24 hrs
Protocol: as §1, §2
(§3) IFNα was quantified by a sandwich ELISA based on specific capture and detection antibodies for various matrices (MABTECH), according to the manufacturer's instructions. QC samples were prepared from the calibrator at 3 different concentrations along the standard curve as multiple aliquots from a single batch and maintained at −20° C.
(§4) IFNβ was quantified by a sandwich ELISA based on specific capture and detection antibodies for various matrices (PBL ASSAY SCIENCE), according to the manufacturer's instructions. QC samples were prepared from the calibrator at 3 different concentrations along the standard curve as multiple aliquots from a single batch and maintained at −20° C. freezer.
(§5) Briefly, PBMC primary cultures were prepared from 4 healthy donors (2 males, 2 females) as described above. […] The cultures were prepared in duplicate and the readouts for pan-IFNα and IFNβ (ELISA) were measured once. Five-point concentration-response curves were constructed for the various treatment conditions in the PBMC cultures, freshly isolated from 4 subjects.

TLR7 [2] = assay: imiquimod-induced cytokine responses in PBMC cultures with peptide pre-treatment; type: cell-based, human
Protocol: as §1, §2, §3, §4, §5

[3] = system: toll-like receptor 3 (TLR3) pathways / RIG-1/Mda5; assay: Qualification of the polyI:C PBMC challenge (cytokine release, 24 hrs); type: cell-based, human
Protocol: Peripheral Blood Mononuclear Cells (PBMCs) were isolated from sodium heparinized blood samples from healthy donors using SEPMATE with LYMPHOPREP ([…] TECHNOLOGIES) based on ficoll density centrifugation. Primary cell cultures were prepared in RPMI including 5% autologous plasma. Isolated PBMC cells were cultured in 96-well plates at a density of 0.5×10^6cells/well at 37° C., under humidified 5% CO2.
IL-1β, TNFα, IL-6 and IL-8 were measured simultaneously with a fixed electrochemoluminescence platform based on the sandwich ELISA principle of capture and detection antibodies, produced by MESO SCALE DISCOVERY (MSD, MESO SCALE QUICKPLEX SQ120). The applied assay was the V-PLEX PLUS pro-inflammatory cytokine panel II, including IL-1β, TNFα, IL-6 and IL-8. This assay includes manufacturer-provided control samples with indicated nominal values for comparison. These lyophilized controls, i.e. freeze-dried controls for IL-1β, TNFα, IL-6, IL-8, were prepared freshly at the time of use. […]
IFNα was quantified by a sandwich ELISA based on specific capture and detection antibodies for various matrices (MABTECH), according to the manufacturer's instructions. […]
IFNβ was quantified by a sandwich ELISA based on specific capture and detection antibodies for various matrices (PBL ASSAY SCIENCE), according to the manufacturer's instructions. […]

[4] = 5 or 25 μg/mL peptide, 30 min pre-treatment, 24 hrs
[5] = right-shift of imiquimod concentration response curves

Molecule: CCCCCCCCCC(=O)N[C@@H](CCCN=C(N)N)C(=O)N[C@H](C(=O)N[C@@H](CCCCN)C(=O)N[C@@H](CCCN=C(N)N)C(=O)CCl)C(C)C [Furin Inhibitor I, reference compound] (Decanoyl-RVKR-CH2Cl)
- IC50 (HPVS PsV): 200 nM

Molecule: CC(C)Cn1cnc2c(N)nc3ccccc3c21 [Imiquimod, imiquimod]
- concentration-effect relationship for IL-6 and TNF-α (TLR7 [1]): bell-shaped
- imiquimod concentration inducing IL-6 release (TLR7 [1]): exceeding 0.4 μg/ml
- imiquimod concentration inducing IL-8 release (TLR7 [1]): exceeding 0.4 μg/ml
- imiquimod concentration inducing TNF-α release (TLR7 [1]): exceeding 0.4 μg/ml
- imiquimod concentration needed for IL-10 release (TLR7 [1]): exceeding 2 μg/ml

Molecule: LLGDFFRKSKEKIGKEFKRIVQRIKDFLRNLVPRTES (LLGDFFRKSKEKIGKEFKRIVQRIKDFLRNLVPRTES; LL-37 peptide) [antimicrobial peptide belonging to the cathelicidin family, synthesized by ANASPEC]
- IL-6 responses to polyI:C (TLR3/RIG-1/Mda5) (TLR3/RIG-1/Mda5): did not significantly affect
- TNFα responses to polyI:C (TLR3/RIG-1/Mda5) (TLR3/RIG-1/Mda5): did not significantly affect
- polyI:C-driven IL-1β release (TLR3/RIG-1/Mda5): did not significantly affect
- spontaneous and polyI:C-driven IL-8 release (TLR3/RIG-1/Mda5): strongly inhibited
- interferon responses induced by polyI:C stimulation (TLR3/RIG-1/Mda5; PBMC of 4 donors): enhanced
- IL-6 responses to imiquimod (TLR7) (TLR7 [2]; [4]): inhibited
- TNFα responses to imiquimod (TLR7) (TLR7 [2]; [4]): inhibited
- interferon responses in the presence of imiquimod (TLR7 [2]; 5 or 25 μg/mL peptide, 30 min pre-treatment, 24 hrs, PBMC of 4 donors): induced strong interferon responses
- IL-1(3 responses to imiquimod (TLR7)) (TLR7 [2]; [5]): inhibited
- IL-8 responses to imiquimod (TLR7) (TLR7 [2]; [5]): inhibited

Molecule: PolyI:C
- PBMC response (cytokines) ([3]; absence of the transfection carrier Lyovec): mild PBMC response
- PBMC response (cytokines) ([3]; presence of Lyovec transfection carrier): substantial polyI:C-driven responses
